The subject of test [1] is TNF-α (NF-κB pathway, THP-1 cells). The test can be described thus: TNF-α Assay (IC50). The test is classed as cell-based, human. As to conditions: Homo sapiens, 600 ng/mL LPS, 3 hours. The protocol: TNF-α Assay (Reported as IC50)
Monocytic THP-1 cells (ATCC: TIB-202) were maintained in accordance with the provider's instructions in RPMI media (Life Technologies, Cat #A10491-01); RPMI was supplemented with 10% heat inactivated fetal bovine serum (Hyclone Cat #SH30396.03). The cells were differentiated into macrophages by the addition of 25 ng/mL IFN-7 for 24 hours at 37° C./5% CO2. Media was exchanged with fresh media with no FBS. The cells were plated at 40,000 cells per well in 384-well flat-bottom cell culture plates (Costar 3764) containing compounds (added in 1:1000) in a 1:3.16 serial dilution series in DMSO and were incubated for 30 minutes at 37° C./5% CO2. The NF-κB pathway was activated with the addition of 600 ng/mL LPS and the cells were incubated for 3 hours at 37° C./5% CO2. At the end of the incubation period, supernatant ([…]) was removed, and TNF-alpha were monitored using an ELISA (Human TNF-α ELISA, R&D systems, Cat #DY210) according to the manufacturer's instructions. 100% inhibition is determined with positive control, TPCA-1.
The IC50 values in the TNF-α assay were calculated from a plot of percentage of inhibition versus the inhibitor concentration by a logistics curve fit according to: Y=[Bottom+(Top−Bottom)]/(1+10^[(Log IC50−X)·Hill Slope], where Y was the […] at the inhibitor concentration, X, “Bottom” was the lowest inhibition value, i.e., 0%, “Top” was the maximum inhibition value, i.e., 100%, and the “Hill Slope” described the slope of the sigmoidal curve between the “Bottom” and “Top” values. The curve fitting was conducted with internally developed software.

Test [2] concerns NLRP3 inflammasome (IL-1β production in THP-1 cells). The test can be described thus: IL-1β TR-FRET Assay (percentage of inhibition at 300 nM, 6 μM or 10 μM). The test is classed as cell-based, human. As to conditions: Homo sapiens, LPS priming, ATP activation; for inhibition at 0.3 µM: THP-1, 300 nM, read-out: IL-1β inhibitory rate at 300 nM (%); for inhibition at 6 µM: THP-1, 6 μM, read-out: IL-1β inhibitory rate at 6 μM (%); for inhibition at 10 µM: THP-1, 10 μM, read-out: IL-1β inhibitory rate at 10 μM (%). The method in brief:
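Percent inhibition of IL-1β used DMSO wells as 0% and 3 μM MCC-950 wells as full inhibition, with supernatant read by HTRF. Beforehand, IFN-γ-differentiated (25 ng/mL, 24 h), LPS-primed (50 ng/mL, 24 h) THP-1 cells received compound 30 min before inflammasome activation by 20 mM ATP for 2 h.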

Data on 26 molecules can be found in patent publication US20260297092A1, “PYRAZOLOPYRIMIDINE DERIVATIVES AS INHIBITORS OF NLRP3” (Takeda Pharmaceutical Company Limited, priority 2023, published 2026).

Some results are limits rather than exact numbers.

By IC50 is commonly meant the concentration that gives 50% inhibition. In the case of `CCOc1nc2nn(-c3c(Br)cc(C4CC4)cc3COC)cc2c(=O)[nH]1` [Example 155, 2-[2-bromo-4-cyclopropyl-6-(methoxymethyl)phenyl]-6-ethoxy-2,5-dihydro-4H-pyrazolo[3,4-d]pyrimidin-4-one], the IC50 in test [1] was above 30 µM. For the same molecule, in test [2], the inhibition at 0.3 µM is 99%.

The molecule `CCOc1nc2nn(-c3ncc(Br)cc3C)cc2c(=O)[nH]1` [Example 150, 2-(5-bromo-3-methylpyridin-2-yl)-6-ethoxy-2,5-dihydro-4H-pyrazolo[3,4-d]pyrimidin-4-one] had an IC50 in test [1] above 30 µM. Besides, in test [2], the inhibition at 0.3 µM is 70%.

On to `COCc1nc2nn(-c3c(C)cc(C4CC4)cc3C(F)F)cc2c(=O)[nH]1` [Example 321, 2-[4-cyclopropyl-2-(difluoromethyl)-6-methylphenyl]-6-(methoxymethyl)-2,5-dihydro-4H-pyrazolo[3,4-d]pyrimidin-4-one], for which the IC50 in test [1] is above 30 µM. For the same molecule, in test [2], the inhibition at 6 µM stood at 103%.

Consider `COC(C)c1nc2nn(-c3c(C)cc(C)cc3O)cc2c(=O)[nH]1` (stereo not shown) [Example 52, 2-(2-hydroxy-4,6-dimethylphenyl)-6-(1-methoxyethyl)-2,5-dihydro-4H-pyrazolo[3,4-d]pyrimidin-4-one], for which the concentration for half-maximal inhibition (IC50) in test [1] was above 30 µM. Moreover, the inhibition at 0.3 µM in test [2] was 95%.

For `CCOc1nc2nn(-c3c(F)cc(Br)cc3Cl)cc2c(=O)[nH]1` [Example 133, 2-(4-bromo-2-chloro-6-fluorophenyl)-6-ethoxy-2,5-dihydro-4H-pyrazolo[3,4-d]pyrimidin-4-one], in test [1], the IC50 was above 30 µM. In addition, in test [2], the inhibition at 0.3 µM is 96%.

For `CCOc1nc2nn(-c3c(F)cc(C)cc3Cl)cc2c(=O)[nH]1` [Example 135, 2-(2-chloro-6-fluoro-4-methylphenyl)-6-ethoxy-2,5-dihydro-4H-pyrazolo[3,4-d]pyrimidin-4-one], the IC50 in test [1] was above 30 µM. Besides, the inhibition at 0.3 µM in test [2] was determined as 98%.

For `CCOc1nc2nn(-c3c(F)cc(C4CC4)cc3OC(F)F)cc2c(=O)[nH]1` [Example 107, 2-[4-cyclopropyl-2-(difluoromethoxy)-6-fluorophenyl]-6-ethoxy-2,5-dihydro-4H-pyrazolo[3,4-d]pyrimidin-4-one], the IC50 in test [1] is above 30 µM. In test [2], the inhibition at 0.3 µM is 99%.

In test [1], `CCOc1nc2nn(-c3c(C)cc(OC(F)F)cc3C)cc2c(=O)[nH]1` [Example 147, 2-[4-(difluoromethoxy)-2,6-dimethylphenyl]-6-ethoxy-2,5-dihydro-4H-pyrazolo[3,4-d]pyrimidin-4-one] registered an IC50 above 30 µM. Besides, in test [2], the inhibition at 0.3 µM amounted to 103%.

In test [1], `COCc1nc2nn(-c3c(F)cc(C4CC4)cc3C(F)F)cc2c(=O)[nH]1` [Example 308, 2-[4-cyclopropyl-2-(difluoromethyl)-6-fluorophenyl]-6-(methoxymethyl)-2,5-dihydro-4H-pyrazolo[3,4-d]pyrimidin-4-one] registered an IC50 above 30 µM. In addition, in test [2], the inhibition at 6 µM worked out at 103%.

In test [1], `COCc1nc2nn(-c3c(C)cc(C)cc3O)cc2c(=O)[nH]1` [Example 28, 2-(2-hydroxy-4,6-dimethylphenyl)-6-(methoxymethyl)-2,5-dihydro-4H-pyrazolo[3,4-d]pyrimidin-4-one] came in with an IC50 above 30 µM. In addition, the inhibition at 0.3 µM in test [2] was 101%.

In turn, `Cc1cc(C)c(-n2cc3c(=O)[nH]c(OCC(F)F)nc3n2)c(O)c1` [Example 32, 6-(2,2-difluoroethoxy)-2-(2-hydroxy-4,6-dimethylphenyl)-2,5-dihydro-4H-pyrazolo[3,4-d]pyrimidin-4-one] had an IC50 in test [1] above 30 µM. Besides, the inhibition at 0.3 µM in test [2] turned out to be 105%.

`CCOc1nc2nn(-c3c(C)cc(C4CC4)cc3C)cc2c(=O)n1C` [Example 141, 2-(4-cyclopropyl-2,6-dimethylphenyl)-6-ethoxy-5-methyl-2,5-dihydro-4H-pyrazolo[3,4-d]pyrimidin-4-one] registered an IC50 in test [1] above 30 µM. Besides, the inhibition at 10 µM in test [2] came out at 95%.

`CCOc1nc2nn(-c3c(F)cc(OC(F)F)cc3Br)cc2c(=O)[nH]1` [Example 119, 2-[2-bromo-4-(difluoromethoxy)-6-fluorophenyl]-6-ethoxy-2,5-dihydro-4H-pyrazolo[3,4-d]pyrimidin-4-one] had an IC50 in test [1] above 30 µM. For the same molecule, in test [2], the inhibition at 0.3 µM was 101%.

The molecule `Cc1cc(C)c(-n2cc3c(=O)[nH]c(CC4CCCCO4)nc3n2)c(O)c1` (stereo not shown) [Example 67, 2-(2-hydroxy-4,6-dimethylphenyl)-6-[(oxan-2-yl)methyl]-2,5-dihydro-4H-pyrazolo[3,4-d]pyrimidin-4-one] returned an IC50 in test [1] above 30 µM. Further, the inhibition at 0.3 µM in test [2] turned out to be 98%.

On to `CCOc1nc2nn(-c3ccc(C)cc3O)cc2c(=O)[nH]1` [Example 56, 6-ethoxy-2-(2-hydroxy-4-methylphenyl)-2,5-dihydro-4H-pyrazolo[3,4-d]pyrimidin-4-one], for which the IC50 in test [1] was above 30 µM. Moreover, the inhibition at 0.3 µM in test [2] came out at 100%.

Molecule `CCOc1nc2nn(-c3c(C)cc(C)cc3C)cc2c(=O)[nH]1` [Example 106, 6-ethoxy-2-(2,4,6-trimethylphenyl)-2,5-dihydro-4H-pyrazolo[3,4-d]pyrimidin-4-one] came in with an IC50 in test [1] above 30 µM. For the same molecule, the inhibition at 0.3 µM in test [2] was 97%.

With `CCOc1nc2nn(-c3c(C)cc(OC)cc3Br)cc2c(=O)[nH]1` [Example 143, 2-(2-bromo-4-methoxy-6-methylphenyl)-6-ethoxy-2,5-dihydro-4H-pyrazolo[3,4-d]pyrimidin-4-one], the IC50 in test [1] was above 30 µM. Besides, the inhibition at 0.3 µM in test [2] amounted to 93%.

Turning to `Cc1cc(C)c(-n2cc3c(=O)[nH]c(C4CC4)nc3n2)c(O)c1` [Example 6, 6-cyclopropyl-2-(2-hydroxy-4,6-dimethylphenyl)-2,5-dihydro-4H-pyrazolo[3,4-d]pyrimidin-4-one], the IC50 in test [1] is above 30 µM. Moreover, in test [2], the inhibition at 0.3 µM amounted to 98%.

Regarding `O=c1[nH]c(C2CC2)nc2nn(-c3c(F)cc(C4CC4)cc3C(F)F)cc12` [Example 173, 6-cyclopropyl-2-[4-cyclopropyl-2-(difluoromethyl)-6-fluorophenyl]-2,5-dihydro-4H-pyrazolo[3,4-d]pyrimidin-4-one], the IC50 in test [1] was above 30 µM. In test [2], the inhibition at 0.3 µM is 108%.

In test [1], `Cc1ccc(-n2cc3c(=O)[nH]c(-c4ccncn4)nc3n2)c(C)c1` [Example 84, 2-(2,4-dimethylphenyl)-6-(pyrimidin-4-yl)-2,5-dihydro-4H-pyrazolo[3,4-d]pyrimidin-4-one] returned an IC50 above 30 µM. The inhibition at 0.3 µM in test [2] is 97%.

`CCOc1nc2nn(-c3c(C)cc(Cl)cc3F)cc2c(=O)[nH]1` [Example 65, 2-(4-chloro-2-fluoro-6-methylphenyl)-6-ethoxy-2,5-dihydro-4H-pyrazolo[3,4-d]pyrimidin-4-one]: in test [1], the IC50 is above 30 µM. Moreover, the inhibition at 0.3 µM in test [2] stood at 96%.

`CCOc1nc2nn(-c3c(F)cc(C)cc3C(F)F)cc2c(=O)[nH]1` [Example 63, 2-[2-(difluoromethyl)-6-fluoro-4-methylphenyl]-6-ethoxy-2,5-dihydro-4H-pyrazolo[3,4-d]pyrimidin-4-one]: the IC50 in test [1] is above 30 µM. Further, the inhibition at 0.3 µM in test [2] is 100%.

For the molecule `Cc1cc(C)c(-n2cc3c(=O)[nH]c(-c4ccnc(C)n4)nc3n2)c(O)c1` [Example 15, 2-(2-hydroxy-4,6-dimethylphenyl)-6-(2-methylpyrimidin-4-yl)-2,5-dihydro-4H-pyrazolo [3,4-d]pyrimidin-4-one], the IC50 in test [1] is above 30 µM. The inhibition at 0.3 µM in test [2] stood at 99%.

For `CCOc1nc2nn(-c3c(C)cc(CC(F)(F)F)cc3F)cc2c(=O)[nH]1` [Example 156, 6-ethoxy-2-[2-fluoro-6-methyl-4-(2,2,2-trifluoroethyl)phenyl]-2,5-dihydro-4H-pyrazolo[3,4-d]pyrimidin-4-one], the IC50 in test [1] was above 30 µM. Besides, in test [2], the inhibition at 10 µM was 97%.

Turning to `C=Cc1cc(C)c(-n2cc3c(=O)[nH]c(OCC)nc3n2)c(F)c1` [Example 120, 2-(4-ethenyl-2-fluoro-6-methylphenyl)-6-ethoxy-2,5-dihydro-4H-pyrazolo[3,4-d]pyrimidin-4-one], in test [1], the IC50 is above 30 µM. Further, the inhibition at 0.3 µM in test [2] is 101%.

In the case of `CCOc1nc2nn(-c3c(C)ccc(C)c3F)cc2c(=O)[nH]1` [Example 101, 6-ethoxy-2-(2-fluoro-3,6-dimethylphenyl)-2,5-dihydro-4H-pyrazolo[3,4-d]pyrimidin-4-one], the half-maximal inhibitory concentration (IC50) in test [1] was above 30 µM. Further, the inhibition at 10 µM in test [2] amounted to 95%.
